Test systems include HOP-18 NSCLC; DMS 273 small cell lung; KM20L2 colon; RXF-631 renal; DLD-1 colon; XF 498 CNS; T-47D breast; MDA-N.
What all share (test): NCI-60 cell line screen, 48 h

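Interpolation was linear, between the two tested concentrations surrounding the appropriate level; five concentrations were tested over 48 hours in 96-well plates. GI50 marks 50% less growth. TGI denotes the concentration required for complete inhibition of growth.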

As for `FC(F)(F)C1(Br)C(c2ccccc2)=C1c1ccccc1`, the TGI in the experiment with HOP-18 NSCLC was 31.1 µM; in the experiment on DMS 273 small cell lung, 36.3 µM; in the experiment on KM20L2 colon it was 36.3 µM; in the experiment on RXF-631 renal, above 100 µM; in the experiment with DLD-1 colon, 43 µM; in the experiment with XF 498 CNS, 30.7 µM.
As for `O=Cc1ccc(-c2ccc(-c3nc4ccccc4o3)cc2)o1`, in the experiment on T-47D breast, the GI50 is 34.8 µM and the TGI was above 100 µM.
Consider `CC1(CCC(=O)OC2CCCCC2)OCCO1`, for which the TGI with T-47D breast and with MDA-N was above 100 µM each time.
Turning to `O=[N+]([O-])CCc1cccc([N+](=O)[O-])c1`, the TGI in the experiment on HOP-18 NSCLC, with DMS 273 small cell lung, with KM20L2 colon and in the experiment on DLD-1 colon was above 100 µM throughout.
For `CCN(CC)CCCNC(=O)c1c2c(n3ccccc13)C(=O)c1ncccc1C2=O`, in the experiment on T-47D breast, the GI50 was 1.34 µM and the TGI stood at 3.61 µM.
For `O=C(OCc1ncc(-c2ccc(C(F)(F)F)cc2)c(NC2CCCCCC2)n1)c1c(F)c(F)c(F)c(F)c1F`, in the experiment on T-47D breast, the GI50 was 1.97 µM and the TGI worked out at 3.99 µM.
For the compound `O=Cc1cccc2c1Oc1c(cccc1C(=O)O)S2`, the TGI in the experiment with T-47D breast and in the experiment with MDA-N was above 100 µM in each case.
In the case of `Cc1cc(Cl)ccc1NC(=O)C(=O)C(C(=O)c1ccc2ccccc2c1)C1OC(=O)c2ccccc21` (stereo not given), the TGI in the experiment with HOP-18 NSCLC came out at 18.1 µM; with DMS 273 small cell lung, 37.1 µM; in the experiment on KM20L2 colon, 61.7 µM; in the experiment on RXF-631 renal it was 31.2 µM; in the experiment with DLD-1 colon, 30.4 µM.
With `C=C(Nc1ccc([N+](=O)[O-])cc1[N+](=O)[O-])c1c/c(=N\NC(N)=S)c2ccccc2o1`, the TGI in the experiment on MDA-N was above 100 µM.
Regarding `CCC(CNc1cc(OC)cc2cccnc12)NC1CCCCC1` (stereo not given), in the experiment on T-47D breast, the GI50 is 17.2 µM and the TGI was 64.3 µM.
The matching figures for `NC(=O)c1cccc(Nc2nccc(Nc3cccc4[nH]ncc34)n2)c1`: 2.99 µM and above 17.9 µM.
Regarding `COc1ccc(OC)c2c1[nH]c(=O)c1c3ncccc3cn21`, in the experiment with T-47D breast, the GI50 was 3.54 µM and the TGI was above 100 µM.
The matching figures for `COc1ccccc1CNCCCN1C(=O)c2ccc3c4c(ccc(c24)C1=O)C(=O)N(CCCCNCCCN)C3=O`: 1.13 µM and 3.65 µM.
Take `O=C(Nc1cccc(O)c1)C(=O)C(C(=O)c1ccc(Cl)c(Cl)c1)C1OC(=O)c2ccccc21` (stereo not given): the TGI in the experiment with HOP-18 NSCLC is above 100 µM; with DMS 273 small cell lung, 39.5 µM; in the experiment on KM20L2 colon, 37.3 µM; with XF 498 CNS it was 25.6 µM.
Consider `O=C1C=CC(=O)c2cc(Sc3ccccc3)c(=O)ccc21`, for which the TGI amounted to 31.8 µM with HOP-18 NSCLC; 35.1 µM with DMS 273 small cell lung; 38 µM in the experiment with KM20L2 colon; 43.4 µM in the experiment with RXF-631 renal; 12.5 µM in the experiment on T-47D breast; 39 µM in the experiment with DLD-1 colon. In the experiment on MDA-N, this compound returned a TGI of 33.4 µM.
`Cc1cc(C)c(Cn2cnc3c(Cl)ncnc32)c(C)c1CCl`: in the experiment on T-47D breast, the GI50 was 24.9 µM and the TGI is 95.3 µM.
For `O=C1OC(O)C(Oc2c(Cl)cccc2Cl)=C1Cl` (stereo not given), the TGI in the experiment with HOP-18 NSCLC turned out to be 42.4 µM; in the experiment with DMS 273 small cell lung, 30.1 µM; in the experiment with KM20L2 colon it was 32.9 µM; in the experiment on DLD-1 colon it was 32.1 µM.
For the compound `CCOC(=N)CC(=O)c1ccccc1`, the TGI with HOP-18 NSCLC, in the experiment with DMS 273 small cell lung, with KM20L2 colon, in the experiment with DLD-1 colon and in the experiment on XF 498 CNS was above 100 µM each time.
For the compound `Cc1cccc(C)c1NC(=O)Nc1ccc(S(N)(=O)=O)cc1`, the TGI in the experiment with T-47D breast and in the experiment with MDA-N was above 100 µM each time.
In the case of `CC(=O)[CH-]C(=O)c1ccccc1.CC(=O)[CH-]C(=O)c1ccccc1.CCOCC[O-].CCOCC[O-].[Ti+4]`, in the experiment with KM20L2 colon, the GI50 is 19.6 µM and the TGI is above 100 µM.
For `COc1ccc2c(c1)CC[C@H](O)/C2=C/c1cc(OC)c(OC)c(OC)c1`, in the experiment with T-47D breast, the GI50 was 0.0354 µM and the TGI came to 52.8 µM.
Take `N#CC1=C(N)NC(N2CCOCC2)=NC12Nc1ccccc1N2`: in the experiment on T-47D breast, the GI50 was 59.1 µM and the TGI is above 100 µM.
Regarding `CCN(CC)CCCC(C)N=C(C1=C(C(=NC(C)CCCN(CC)CC)c2cccc(OC)c2)C(=O)NC1=O)c1cccc(OC)c1` (stereo not given), in the experiment with T-47D breast, the GI50 was 2.02 µM and the TGI was 10.4 µM.
As to `CN/N=C(\C)C(CN(C)C)C(c1ccccc1)c1c(O)c2ccccc2oc1=O` (stereo not given), the TGI in the experiment with T-47D breast and in the experiment with MDA-N was above 100 µM each time.
`COc1nc(N)nc2c1ncn2C1OC(CO)C(O)C1O` (stereo not given): in the experiment with T-47D breast, the GI50 is above 5000 µM and the TGI was above 5000 µM.
Take `Cc1cn2c(/C=N/N=C(N)N)c(-c3cccs3)nc2s1`: in the experiment on T-47D breast, the GI50 is 5.51 µM and the TGI came out at 25.9 µM.
For `COC(=O)c1cc(O)c2c(c1C(=O)OC)C[C@H]1[C@@H]3CC=C4C[C@@H](O)CC[C@]4(C)[C@H]3CC[C@]21C`, in that order: 1.51 µM and 6.91 µM.
On to `CC(C)(C)C(=O)OCC1CCC(n2cnc3c(=O)[nH]c(N)nc32)O1` (stereo not given), for which the TGI with HOP-18 NSCLC, with DMS 273 small cell lung, in the experiment on KM20L2 colon and with XF 498 CNS was above 100 µM in each case.
`CC(C)(C)C1CCC2c3c([nH]c4ccccc34)C3C(=O)N(c4ccccc4)C(=O)C3C2C1` (stereo not given): the TGI in the experiment with HOP-18 NSCLC was 9.73 µM; in the experiment with DMS 273 small cell lung it was 15 µM; in the experiment with DLD-1 colon it was above 100 µM; with XF 498 CNS, 3 µM.
In the case of `COc1ccc(C(=O)c2cc3c(N)c(C(=O)Nc4ccc(C)cc4)sc3nc2C)cc1`, in the experiment on T-47D breast, the GI50 is 4.78 µM and the TGI came to 91.7 µM.
The matching figures for `CN1C(=O)N[C@H]2[C@@H]3NC(=O)c4ccc(Br)n4[C@@H]3C[C@]21O`: 0.0313 µM and 0.23 µM.
The matching figures for `Cc1nc(N2CCC3(CC2)CO[C@@H](C)[C@H]3N)c(CO)nc1Sc1ccnc(N)c1Cl`: 32.4 µM and above 100 µM.
Regarding `Cc1cc(C)c(NC(=S)NC(=O)c2ccccc2)cc1C`, the TGI in the experiment with T-47D breast and in the experiment on MDA-N was above 100 µM throughout.

Source of the values: PubChem BioAssay (NCI).
